From patent US10294246B2, “Substituted boronic acids and boronate esters as immunoproteasome inhibitors” (MERCK PATENT GMBH, priority 2014, dated 2019)
pIC50: −log10 of the molar value.

Columns and labels:
[1] = biological target: human immunoproteasome (LMP7) (Homo sapiens (Human), UniProt P28062); assay: Determination of LMP7 activity (fluorescence intensity assay, Suc-LLVY-AMC); type: biochemical; conditions: for Selectivity LMP7 vs Beta5: LMP7 versus Beta5; for pIC50: purified human immunoproteasome 0.25 nM, Suc-LLVY-AMC 40 μM
Procedure, shortened: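 0.25 nM purified human immunoproteasome preincubated 20 min at 25 °C with serially diluted compounds in 50 mM Tris pH 7.4, 0.03% SDS, 1 mM EDTA, 1% DMSO. Reaction started with 40 μM Suc-LLVY-AMC, run 60 min at 37 °C. Fluorescence read at ex 350/em 450 nm.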

[2] = biological target: human constitutive proteasome (Beta5) (Homo sapiens (Human), UniProt P28074); assay: Determination of Beta5 activity (fluorescence intensity assay, Suc-LLVY-AMC); type: biochemical; conditions: purified human constitutive proteasome 1.25 nM, Suc-LLVY-AMC 40 μM
Procedure, shortened: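 Purified constitutive proteasome (1.25 nM) was preincubated with compounds 20 min at 25 °C in 50 mM Tris pH 7.4, 0.03% SDS, 1 mM EDTA, 1% DMSO. Suc-LLVY-AMC (40 μM) was then added for 60 min at 37 °C. AMC fluorescence was read at ex 350/em 450 nm.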

Row | Structure (SMILES) | Selectivity LMP7 vs Beta5 [1] | pIC50 [1] | pIC50 [2]
1 | O=C(Cc1ccccc1)N[C@@H](C[C@H]1COc2c(Cl)cccc21)B(O)O [Compound No. 133, [(1R)-2-[(3R)-7-chloro-2,3-dihydrobenzofuran-3-yl]-1-[(2-phenylacetyl)amino]ethyl]boronic acid] | ++ (10 ≤ Selectivity < 50) | 5.30 to 6.30 | < 5.30
2 | COc1ccc(CC(=O)N[C@@H](C[C@H]2COc3c(C)cccc32)B(O)O)cc1 [Compound No. 88, [(1R)-1-[[2-(4-methoxyphenyl)acetyl]amino]-2-[(3R)-7-methyl-2,3-dihydrobenzofuran-3-yl]ethyl]boronic acid] | +++++ (Selectivity ≥ 100) | 6.30 to 7.30 | < 5.30
3 | Cc1cccc2c1OC[C@H]2C[C@H](NC(=O)Cc1ccccc1)B(O)O [Compound No. 124, [(1R)-2-[(3S)-7-methyl-2,3-dihydrobenzofuran-3-yl]-1-[(2-phenylacetyl)amino]ethyl]boronic acid] | +++++ (Selectivity ≥ 100) | > 7.30 | < 5.30
4 | COc1cccc(CC(=O)N[C@@H](Cc2coc3ccccc23)B(O)O)c1 [Compound No. 15, [(1R)-2-(benzofuran-3-yl)-1-[[2-(3-methoxyphenyl)acetyl]amino]ethyl]-boronic acid] | ++++ (70 ≤ Selectivity < 100) | > 7.30 | 6.30 to 7.30
5 | CO[C@@H](C(=O)N[C@@H](Cc1coc2c(C)cccc12)B(O)O)c1ccccc1 [Compound No. 76, [(1R)-1-[[(2R)-2-methoxy-2-phenyl-acetyl]amino]-2-(7-methylbenzofuran-3-yl)ethyl]boronic acid] | +++++ (Selectivity ≥ 100) | > 7.30 | 5.30 to 6.30
6 | Cc1ccc(C[C@H](NC(=O)Cc2ccccc2)B(O)O)cc1 [Compound No. 14, [(1R)-1-[(2-phenylacetyl)amino]-2-(p-tolyl)ethyl]boronic acid] | +++ (50 ≤ Selectivity < 70) | 6.30 to 7.30 | 5.30 to 6.30

Further lines, results first:

Row | Selectivity LMP7 vs Beta5 [1] | pIC50 [1] | pIC50 [2] | Structure (SMILES)
7 | +++++ (Selectivity ≥ 100) | > 7.30 | < 5.30 | COc1ccc(CCC(=O)N[C@@H](CC2COc3c(C)cccc32)B(O)O)nc1 (stereo partly drawn) [Compound No. 86, [(1R)-1-[3-(5-methoxy-2-pyridyl)propanoylamino]-2-(7-methyl-2,3-dihydrobenzofuran-3-yl)ethyl]boronic acid]
8 | +++++ (Selectivity ≥ 100) | > 7.30 | 5.30 to 6.30 | COc1ccc(CC(=O)N[C@@H](Cc2coc3c(C)cccc23)B(O)O)cc1 [Compound No. 82, [(1R)-1-[[2-(4-methoxyphenyl)acetyl]amino]-2-(7-methylbenzofuran-3-yl)ethyl]boronic acid]
9 | +++++ (Selectivity ≥ 100) | > 7.30 | 5.30 to 6.30 | Cc1ccc(C[C@H](NC(=O)Cc2ccc(N3CCCC3=O)cc2)B(O)O)c(C)c1 [Compound No. 43, [(1R)-2-(2,4-dimethylphenyl)-1-[[2-[4-(2-oxopyrrolidin-1-yl)phenyl]-acetyl]amino]ethyl]boronic acid]
10 | +++++ (Selectivity ≥ 100) | > 7.30 | 5.30 to 6.30 | Cc1cccc2c1OCC2C[C@H](NC(=O)Cc1ccccc1)B(O)O (stereo partly drawn) [Compound No. 77, [(1R)-2-(7-methyl-2,3-dihydrobenzofuran-3-yl)-1-[(2-phenylacetyl)-amino]ethyl]boronic acid]
11 | +++++ (Selectivity ≥ 100) | > 7.30 | 6.30 to 7.30 | CC(C)(O)c1ccc(CC(=O)N[C@@H](Cc2coc3ccccc23)B(O)O)cc1 [Compound No. 91, [(1R)-2-(benzofuran-3-yl)-1-[[2-[4-(1-hydroxy-1-methyl-ethyl)phenyl]acetyl]amino]ethyl]boronic acid]
12 | +++++ (Selectivity ≥ 100) | > 7.30 | 5.30 to 6.30 | Cc1cccc2c(C[C@H](NC(=O)Cc3ccccc3)B(O)O)coc12 [Compound No. 75, [(1R)-2-(7-methylbenzofuran-3-yl)-1-[(2-phenylacetyl)amino]-ethyl]boronic acid]
